Among the data in patent publication US20240360154A1, “AROYL SUBSTITUTED TRICYCLIC COMPOUND, PREPARATION METHOD THEREFOR AND USE THEREOF” (GENFLEET THERAPEUTICS (SHANGHAI) INC., priority 2020, published 2024) are IC50 values, retold here.

Experiment [1] relates to TMD-8 cells. Kind of experiment: TMD-8 proliferation inhibition experiment. Type of experiment: cell-based. The conditions noted are these: human diffuse large B lymphoma cells, three days incubation. As for the experimental part: TMD-8 cells are human diffuse large B lymphoma (Mingzhou Bio, MZ-0832), cultured in 10% FBS+1% PS 1640 medium; OCI-LY10 is human diffuse large B lymphoma (BeNa Culture Collection, BNCC337742), cultured in 10% FBS+1% PS IMDM. Day 1: Cells at logarithmic growth phase were taken, counted and inoculated 600 TMD-8 or 2000 OCI-LY10 cells in a 384-well cell culture plate and cultured overnight. Day 2: A 3-fold gradient concentration stock solution of 400× compound was prepared with DMSO, and diluted 40-fold to a 10× compound stock solution with culture medium. The 10× compound stock solution was added to each cell culture well with a final concentration of 1× compound stock solution and a DMSO content of 0.25%. DMSO was used as experimental control, and culture medium was used as blank control. The incubation was continued for three days after compound addition. On the fifth day, 25 μL of […] was added to each well, mixed well and incubated for 10 minutes, then the chemiluminescence value (RLU value) was read. The cell proliferation inhibition rate (%)=(RLUcontrol−RLUcompound)/(RLUcontrol−RLUblank)×100% was calculated. The compound gradient dilution concentration and the corresponding cell proliferation inhibition rate were fit by using XLFit four-parameter method, and IC50 value was calculated.

Experiment [2] deals with BTK (C481S) (Homo sapiens (Human), UniProt Q06187, C481S). Nature of the experiment: BTK C481S enzyme experiment (ADP-Glo kinase assay). Type of experiment: biochemical. The following applies: 10 nM BTK C481S, ATP 125 μM, Poly(Glu4, Tyr1), 90 minutes at 20° C. The protocol:
(§1) A 3-fold gradient concentration stock solution of 1000× compound was prepared using DMSO and diluted 100-fold to 10× compound stock solution using reaction buffer (50 mM HEPES, pH 7.5, 0.0015% Briji-35, 2 mM DTT, 10 mM MgCl2), and the 10× compound stock solution was transferred to a 384-well plate. Enzyme reactions were set up with BTK Kinase Enzyme System (Promega Catalog #V2941) or BTK (C481S) Kinase Enzyme System (Promega Catalog #VA7033). First, a 2× enzyme solution containing 10 nM BTK or 10 nM BTK C481S was prepared with reaction buffer and added to the plate, and incubated with the compound for 10 minutes. […] Finally, the kinase activity was detected according to the experimental steps provided by ADP-Glo™ kinase Assay Kit (Promega, #V9101), and finally the luminescence chemiluminescence value was read. DMSO was used as the maximum signal value, and adding no enzyme was used as the minimum signal value. The inhibition rate of the compound (%)=(maximum signal value−compound signal value)/(maximum signal value−minimum signal value)×100% was calculated. The compound gradient dilution concentration and the corresponding inhibition rate of the enzyme activity were fit by using XLFit four-parameter method, and IC50 value was calculated.

For experiment [3], the target named is BTK (Homo sapiens (Human), UniProt Q06187). Nature of the experiment: BTK enzyme experiment (ADP-Glo kinase assay). Type of experiment: biochemical. The following applies: 10 nM BTK, ATP 125 μM, Poly(Glu4, Tyr1), 90 minutes at 20° C.; read-out: BTK(WT) IC50. As for the experimental part:
as §1
(In general: ADP-Glo first removes unused ATP, then detects ADP through luciferase.)

BTK (C481S), sequence (Q06187 whole entry C481S): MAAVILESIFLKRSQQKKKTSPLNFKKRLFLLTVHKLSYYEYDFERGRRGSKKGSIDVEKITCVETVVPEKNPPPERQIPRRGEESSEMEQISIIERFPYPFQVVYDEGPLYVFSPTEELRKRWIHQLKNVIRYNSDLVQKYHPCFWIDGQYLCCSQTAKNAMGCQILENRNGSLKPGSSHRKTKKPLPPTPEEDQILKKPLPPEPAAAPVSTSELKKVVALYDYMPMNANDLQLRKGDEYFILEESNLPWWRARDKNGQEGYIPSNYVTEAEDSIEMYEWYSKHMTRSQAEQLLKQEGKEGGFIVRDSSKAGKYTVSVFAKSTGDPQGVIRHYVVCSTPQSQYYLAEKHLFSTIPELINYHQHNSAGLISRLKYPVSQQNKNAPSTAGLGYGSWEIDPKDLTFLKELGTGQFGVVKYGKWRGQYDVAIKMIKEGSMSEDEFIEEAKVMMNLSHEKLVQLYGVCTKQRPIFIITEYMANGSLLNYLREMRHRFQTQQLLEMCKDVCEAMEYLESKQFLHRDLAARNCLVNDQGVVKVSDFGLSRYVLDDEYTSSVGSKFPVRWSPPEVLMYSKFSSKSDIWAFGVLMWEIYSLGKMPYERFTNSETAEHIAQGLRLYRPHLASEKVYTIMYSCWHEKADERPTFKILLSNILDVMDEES
BTK, sequence (Q06187 whole entry): as the sequence (Q06187 whole entry C481S) above, with S481C counted along it

Usually IC50 stands for the point on the concentration scale where inhibition reaches its midpoint. Take `C[C@]1(CO)Nc2c(cnc3[nH]cc(C(=O)c4ccc(Oc5ccccc5)cc4Cl)c23)NC1=O` (single isomer, unassigned) [Z9-1]: the IC50 in experiment [1] came to 389 nM; in experiment [2], 20 nM; in experiment [3], 20 nM.

For `O=C(c1ccc(Oc2ccccc2)cc1Cl)c1c[nH]c2ncc3c(c12)N[C@@]1(CC[C@H](O)C1)C(=O)N3` (single isomer, unassigned) [Z24-1], the IC50 in experiment [1] came out at 55.4 nM; in experiment [2], 3.7 nM; in experiment [3], 3.5 nM.

For `O=C(c1ccc(Oc2ccccc2)cc1Cl)c1c[nH]c2ncc3c(c12)N[C@]1(CC[C@H](O)C1)C(=O)N3` (single isomer, unassigned) [Z24-2], the values for the half-inhibitory concentration (IC50) in experiment [1], in experiment [2] and in experiment [3] were 63.1 nM, 4.7 nM and 5 nM, respectively.

As to `COC1CCC2(C1)Nc1c(cnc3[nH]cc(C(=O)c4ccc(Oc5ccccc5)cc4Cl)c13)NC2=O` (single isomer, unassigned) [Z25-1, 9′-(2-chloro-4-phenoxybenzoyl)-3-methoxy-4′,7′-dihydrospiro[cyclopentane-1,2′-pyrrolo[3′,2′:5,6]pyrido[3,4-b]pyrazin]-3′(1′H)-one], the IC50 in experiment [1] (Homo sapiens, TMD8, 72 h) is 101 nM; in experiment [2] it was 19.8 nM; in experiment [3], 32 nM.

Turning to `COC1CCC2(C1)Nc1c(cnc3[nH]cc(C(=O)c4ccc(Oc5ccccc5)cc4Cl)c13)NC2=O` (single isomer, unassigned) [Z25-3, 9′-(2-chloro-4-phenoxybenzoyl)-3-methoxy-4′,7′-dihydrospiro[cyclopentane-1,2′-pyrrolo[3′,2′:5,6]pyrido[3,4-b]pyrazin]-3′(1′H)-one], the IC50 came out at 108 nM in experiment [1], 16.4 nM in experiment [2] and 22.4 nM in experiment [3].

Take `COC1CCC2(C1)Nc1c(cnc3[nH]cc(C(=O)c4ccc(Oc5ccccc5)cc4Cl)c13)NC2=O` (single isomer, unassigned) [Z25-3a, 9′-(2-chloro-4-phenoxybenzoyl)-3-methoxy-4′,7′-dihydrospiro[cyclopentane-1,2′-pyrrolo[3′,2′:5,6]pyrido[3,4-b]pyrazin]-3′(1′H)-one]: the IC50 is 102 nM in experiment [1], 7.6 nM in experiment [2] and 15.4 nM in experiment [3].

`COC1CCC2(C1)Nc1c(cnc3[nH]cc(C(=O)c4ccc(Oc5ccccc5)cc4Cl)c13)NC2=O` (single isomer, unassigned) [Z25-3b, 9′-(2-chloro-4-phenoxybenzoyl)-3-methoxy-4′,7′-dihydrospiro[cyclopentane-1,2′-pyrrolo[3′,2′:5,6]pyrido[3,4-b]pyrazin]-3′(1′H)-one]: the IC50 in experiment [1] came to 140 nM; in experiment [2] it was 10 nM; in experiment [3] it was 15.1 nM.

Regarding `N#C[C@H]1CC[C@@]2(C1)Nc1c(cnc3[nH]cc(C(=O)c4ccc(Oc5ccccc5)cc4Cl)c13)NC2=O` (single isomer, unassigned) [Z26-2], the figures for the IC50 in experiment [1], in experiment [2] and in experiment [3] were 159 nM, 17.5 nM and 23.6 nM, respectively.

For the compound `N#C[C@H]1CC[C@@]2(C1)Nc1c(cnc3[nH]cc(C(=O)c4ccc(Oc5ccccc5)cc4Cl)c13)NC2=O` (single isomer, unassigned) [Z26-3], the values for the IC50 in experiment [1], in experiment [2] and in experiment [3] were 216 nM, 20.6 nM and 34 nM, respectively.

As to `O=C(c1ccc(Oc2ccccc2)cc1Cl)c1c[nH]c2ncc3c(c12)N[C@@]1(CC[C@H](CO)OC1)C(=O)N3` (single isomer, unassigned) [Z41-2b], the IC50 in experiment [1] was determined as 101 nM; in experiment [2], 6.1 nM; in experiment [3], 7.9 nM.

Turning to `CN1C(=O)[C@](C)(CO)Nc2c1cnc1[nH]cc(C(=O)c3ccc(Oc4ccccc4)cc3Cl)c21` (single isomer, unassigned) [Z51-1], the values for the IC50 in experiment [1], in experiment [2] and in experiment [3] were 280 nM, 34.3 nM and 52.3 nM, respectively.

Turning to `CN1C(=O)[C@@](C)(CO)Nc2c1cnc1[nH]cc(C(=O)c3ccc(Oc4ccccc4)cc3Cl)c21` (single isomer, unassigned) [Z51-2], the IC50 in experiment [1] is 154 nM; in experiment [2], 20.8 nM; in experiment [3], 32.6 nM.
